Laboratory results published in ChEMBL document CHEMBL4033730, “Thiosemicarbazones as inhibitors of tyrosinase enzyme” (Bioorg Med Chem Lett, 2017).
Activity calls are given as the source filed them. No cut-off for these calls is given here.

Key:
[1] = target: T1, Mushroom tyrosinase (Agaricus bisporus, UniProt O42713+Q00024+C7FF04+C7FF05); assay: Competitive inhibition of Agaricus bisporus tyrosinase assessed as reduction in diphenolase activity by measuring L-DOPA oxidation at 1.6 mM after 30 mins by Lineweaver-Burk plot
[2] = target: T1, Mushroom tyrosinase; assay: Inhibition of Agaricus bisporus tyrosinase assessed as reduction in diphenolase activity by measuring L-DOPA oxidation after 30 mins
[3] = target: T2, Mushroom tyrosinase (Agaricus bisporus) (UniProt O42713+Q00024+C7FF04+C7FF05); assay: Inhibition of Agaricus bisporus tyrosinase assessed as reduction in diphenolase activity by measuring L-DOPA oxidation at 1.6 mM after 0 to 70 mins by UV-visible specroscopy
[4] = target: T1, Mushroom tyrosinase; assay: […] inhibition of Agaricus bisporus tyrosinase assessed as reduction in diphenolase activity by measuring L-DOPA oxidation at 1.6 mM after 30 mins by Lineweaver-Burk plot
[5] = target: T1, Mushroom tyrosinase; assay: Uncompetitive inhibition of Agaricus bisporus tyrosinase assessed as reduction in diphenolase activity by measuring L-DOPA oxidation at 1.6 mM after 30 mins by Lineweaver-Burk plot
[6] = target: T2, Mushroom tyrosinase (Agaricus bisporus); assay: Inhibition of Agaricus bisporus tyrosinase assessed as reduction in diphenolase activity by measuring L-DOPA oxidation at 2.67 mM after 30 mins
[7] = target: T2, Mushroom tyrosinase (Agaricus bisporus); assay: Inhibition of Agaricus bisporus tyrosinase assessed as reduction in diphenolase activity by measuring L-DOPA oxidation at 1.78 mM after 30 mins
[8] = target: T2, Mushroom tyrosinase (Agaricus bisporus); assay: Inhibition of Agaricus bisporus tyrosinase assessed as reduction in diphenolase activity by measuring L-DOPA oxidation at 0.29 mM after 30 mins
[9] = target: T2, Mushroom tyrosinase (Agaricus bisporus); assay: Inhibition of Agaricus bisporus tyrosinase assessed as reduction in diphenolase activity by measuring L-DOPA oxidation at 1.33 mM after 30 mins
[10] = target: T2, Mushroom tyrosinase (Agaricus bisporus); assay: Inhibition of Agaricus bisporus tyrosinase assessed as reduction in diphenolase activity by measuring L-DOPA oxidation at 0.44 mM after 30 mins
[11] = target: T2, Mushroom tyrosinase (Agaricus bisporus); assay: Competitive inhibition of Agaricus bisporus tyrosinase assessed as reduction in diphenolase activity by measuring L-DOPA oxidation at 1.6 mM after 30 mins UV-visible specroscopy
[12] = target: T2, Mushroom tyrosinase (Agaricus bisporus); assay: Inhibition of Agaricus bisporus tyrosinase assessed as reduction in diphenolase activity by measuring L-DOPA oxidation at 0.89 mM after 30 mins
[13] = target: T2, Mushroom tyrosinase (Agaricus bisporus); assay: Inhibition of Agaricus bisporus tyrosinase assessed as reduction in diphenolase activity by measuring L-DOPA oxidation at 0.15 mM after 30 mins
[14] = target: T2, Mushroom tyrosinase (Agaricus bisporus); assay: Inhibition of Agaricus bisporus tyrosinase assessed as reduction in diphenolase activity by measuring L-DOPA oxidation at 2.22 mM after 30 mins
[15] = system: NC(=S)N/N=C/c1ccccc1; assay: (§1) Inhibition of Agaricus bisporus tyrosinase assessed as reduction in diphenolase activity by measuring Vmax for L-DOPA oxidation at 1.6 mM after 30 mins by Lineweaver-Burk plot
[16] = system: NC(=S)N/N=C/c1ccc(Br)cc1; assay: as §1
[17] = system: NC(=S)N/N=C/c1ccc(O)cc1; assay: as §1
[18] = system: NC(=S)N/N=C/c1ccc(Cl)cc1; assay: as §1
[19] = system: COc1ccc(/C=N/NC(N)=S)cc1; assay: as §1
[20] = system: CCOc1ccc(/C=N/NC(N)=S)cc1; assay: as §1
[21] = system: COc1cc(/C=N/NC(N)=S)ccc1O; assay: as §1
[22] = system: NC(=S)N/N=C/c1ccc(NC(=S)N/N=C/c2ccccn2)cc1; assay: as §1
[23] = system: NC(=S)N/N=C/c1ccccc1; assay: (§2) Inhibition of Agaricus bisporus tyrosinase assessed as reduction in diphenolase activity by measuring apparent Km for L-DOPA oxidation at 1.6 mM after 30 mins by Lineweaver-Burk plot
[24] = system: NC(=S)N/N=C/c1ccc(Br)cc1; assay: as §2
[25] = system: NC(=S)N/N=C/c1ccc(O)cc1; assay: as §2
[26] = system: NC(=S)N/N=C/c1ccc(Cl)cc1; assay: as §2
[27] = system: COc1ccc(/C=N/NC(N)=S)cc1; assay: as §2
[28] = system: CCOc1ccc(/C=N/NC(N)=S)cc1; assay: as §2
[29] = system: COc1cc(/C=N/NC(N)=S)ccc1O; assay: as §2
[30] = system: NC(=S)N/N=C/c1ccc(NC(=S)N/N=C/c2ccccn2)cc1; assay: as §2

Mushroom tyrosinase (Agaricus bisporus) (from UniProt O42713+Q00024+C7FF04+C7FF05), sequence (C7FF05 whole entry, looked up): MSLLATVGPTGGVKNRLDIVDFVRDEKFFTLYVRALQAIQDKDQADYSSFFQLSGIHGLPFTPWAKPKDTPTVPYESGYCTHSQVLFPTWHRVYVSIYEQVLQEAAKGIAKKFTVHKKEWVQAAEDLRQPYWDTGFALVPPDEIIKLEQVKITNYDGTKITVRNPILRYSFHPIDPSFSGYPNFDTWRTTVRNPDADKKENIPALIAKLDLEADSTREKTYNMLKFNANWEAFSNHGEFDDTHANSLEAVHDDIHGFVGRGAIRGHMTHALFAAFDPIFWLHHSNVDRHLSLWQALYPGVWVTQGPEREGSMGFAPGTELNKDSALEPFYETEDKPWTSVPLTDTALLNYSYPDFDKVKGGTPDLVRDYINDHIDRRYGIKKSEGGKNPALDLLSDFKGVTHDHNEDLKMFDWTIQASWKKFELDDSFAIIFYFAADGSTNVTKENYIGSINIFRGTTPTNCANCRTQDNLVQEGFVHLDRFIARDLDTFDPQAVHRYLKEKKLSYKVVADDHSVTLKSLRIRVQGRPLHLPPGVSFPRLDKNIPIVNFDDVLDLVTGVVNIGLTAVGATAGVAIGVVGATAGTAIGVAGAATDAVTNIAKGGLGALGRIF
Mushroom tyrosinase (Agaricus bisporus) (from UniProt O42713+Q00024+C7FF04+C7FF05), sequence (C7FF04 whole entry, looked up): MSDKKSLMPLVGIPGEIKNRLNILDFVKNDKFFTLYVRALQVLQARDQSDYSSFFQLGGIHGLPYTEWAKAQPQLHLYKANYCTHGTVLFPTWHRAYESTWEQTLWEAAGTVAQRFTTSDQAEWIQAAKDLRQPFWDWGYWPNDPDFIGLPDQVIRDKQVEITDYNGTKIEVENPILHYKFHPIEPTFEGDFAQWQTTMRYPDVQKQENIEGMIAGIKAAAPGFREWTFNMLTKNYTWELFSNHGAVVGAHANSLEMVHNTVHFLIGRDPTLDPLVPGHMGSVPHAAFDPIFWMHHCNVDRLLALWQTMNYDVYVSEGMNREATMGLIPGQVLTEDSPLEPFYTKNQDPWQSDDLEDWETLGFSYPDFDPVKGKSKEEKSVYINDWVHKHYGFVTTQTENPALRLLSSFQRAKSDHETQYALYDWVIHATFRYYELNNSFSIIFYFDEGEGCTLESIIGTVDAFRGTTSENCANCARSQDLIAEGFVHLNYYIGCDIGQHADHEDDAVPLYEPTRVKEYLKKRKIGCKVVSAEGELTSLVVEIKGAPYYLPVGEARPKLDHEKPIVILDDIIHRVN
Mushroom tyrosinase (Agaricus bisporus) (from UniProt O42713+Q00024+C7FF04+C7FF05), sequence (Q00024 whole entry, looked up): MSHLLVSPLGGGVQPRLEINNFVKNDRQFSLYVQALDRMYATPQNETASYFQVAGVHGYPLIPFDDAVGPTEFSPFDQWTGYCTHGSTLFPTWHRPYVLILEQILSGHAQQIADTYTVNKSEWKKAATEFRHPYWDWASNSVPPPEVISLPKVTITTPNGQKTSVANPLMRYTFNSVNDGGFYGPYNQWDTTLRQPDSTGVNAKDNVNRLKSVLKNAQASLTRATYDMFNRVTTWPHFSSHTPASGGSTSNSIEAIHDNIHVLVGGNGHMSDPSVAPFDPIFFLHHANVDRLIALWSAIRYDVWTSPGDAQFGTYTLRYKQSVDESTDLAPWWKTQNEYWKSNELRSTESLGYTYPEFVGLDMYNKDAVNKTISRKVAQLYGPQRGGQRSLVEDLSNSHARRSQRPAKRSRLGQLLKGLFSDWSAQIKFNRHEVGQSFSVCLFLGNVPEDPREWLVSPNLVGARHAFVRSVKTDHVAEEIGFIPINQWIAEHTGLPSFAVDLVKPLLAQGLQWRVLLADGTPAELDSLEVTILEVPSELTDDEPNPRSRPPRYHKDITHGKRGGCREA
Mushroom tyrosinase (Agaricus bisporus) (from UniProt O42713+Q00024+C7FF04+C7FF05), sequence (O42713 whole entry, looked up): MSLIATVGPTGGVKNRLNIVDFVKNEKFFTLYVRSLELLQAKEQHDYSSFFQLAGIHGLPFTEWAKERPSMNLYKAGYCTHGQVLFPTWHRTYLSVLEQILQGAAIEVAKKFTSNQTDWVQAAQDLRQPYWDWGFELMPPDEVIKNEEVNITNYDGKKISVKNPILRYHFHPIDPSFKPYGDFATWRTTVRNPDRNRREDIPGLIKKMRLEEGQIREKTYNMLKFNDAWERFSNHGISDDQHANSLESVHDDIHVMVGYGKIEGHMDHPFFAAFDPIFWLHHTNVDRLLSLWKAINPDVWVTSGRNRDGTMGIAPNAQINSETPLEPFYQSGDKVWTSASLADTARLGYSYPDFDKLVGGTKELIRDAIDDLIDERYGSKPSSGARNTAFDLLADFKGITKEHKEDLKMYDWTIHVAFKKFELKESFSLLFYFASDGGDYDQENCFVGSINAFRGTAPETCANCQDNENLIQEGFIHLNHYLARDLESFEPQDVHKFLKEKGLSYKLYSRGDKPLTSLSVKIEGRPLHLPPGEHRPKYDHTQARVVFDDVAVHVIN

**Q.** Which Ki [1] does the source give for `NC(=S)N/N=C/c1ccc(NC(=S)N/N=C/c2ccccn2)cc1` here?
**A.** Its Ki is 200 µM.

**Q.** And the IC50 [2]?
**A.** The IC50 was 1190 µM.

**Q.** What about the inhibition [3] of the same molecule?
**A.** The inhibition was “Active”.

**Q.** For `NC(=S)N/N=C/c1ccc(O)cc1`, which inhibition [3] is on record?
**A.** Its inhibition is “Active”.

**Q.** How did the IC50 [2] turn out when `NC(=S)N/N=C/c1ccccc1` [PHENYLTHIOSEMICARBAZONE] was run?
**A.** Its IC50 is 820 µM.

**Q.** And the inhibition [3]?
**A.** Its inhibition is “Active”.

**Q.** What about the Ki [4] of the same molecule?
**A.** The Ki was 4500 µM.

**Q.** Which results are given for `NC(=S)N/N=C/c1ccc(Br)cc1`?
**A.** Ki [5]: 600 µM; IC50 [2]: 1420 µM; inhibition [3]: Active

**Q.** Which results are given for `COc1ccc(/C=N/NC(N)=S)cc1`?
**A.** Ki [1]: 50 µM; IC50 [2]: 440 µM; inhibition [3]: Active

**Q.** Which Ki [1] does the source give for `NC(=S)N/N=C/c1ccc(Cl)cc1` here?
**A.** The Ki was 1300 µM.

**Q.** And the IC50 [2]?
**A.** The IC50 was 840 µM.

**Q.** For `COc1cc(/C=N/NC(N)=S)ccc1O`, which inhibition [6] is on record?
**A.** Its inhibition is 93.8%.

**Q.** And the inhibition [7]?
**A.** The inhibition was 92.8%.

**Q.** What about the inhibition [8] of the same molecule?
**A.** The inhibition was 45.7%.

**Q.** What about the Ki [1] of the same molecule?
**A.** The Ki was 60 µM.

**Q.** What about the inhibition [9] of the same molecule?
**A.** The inhibition was 89.2%.

**Q.** What about the IC50 [2] of the same molecule?
**A.** The IC50 was 350 µM.

**Q.** And the inhibition [10]?
**A.** The inhibition was 59.3%.

**Q.** What about the inhibition [11] of the same molecule?
**A.** Its inhibition is “Active”.

**Q.** What about the inhibition [12] of the same molecule?
**A.** Its inhibition is 79.2%.

**Q.** And the inhibition [13]?
**A.** The inhibition was 24%.

**Q.** And the inhibition [3]?
**A.** The inhibition was “Active”.

**Q.** And the inhibition [14]?
**A.** The inhibition was 94.6%.

**Q.** Which Ki [1] does the source give for `CCOc1ccc(/C=N/NC(N)=S)cc1` here?
**A.** The Ki was 60 µM.

**Q.** What about the IC50 [2] of the same molecule?
**A.** The IC50 was 360 µM.

**Q.** And the inhibition [3]?
**A.** The inhibition was “Active”.

**Q.** How did the Vmax [15] turn out when “Mushroom tyrosinase (Agaricus bisporus) (from UniProt O42713+Q00024+C7FF04+C7FF05)” was run?
**A.** The Vmax was 18.9 mM/min.

**Q.** What about the Vmax [16] of the same molecule?
**A.** Its Vmax is 16.6 mM/min.

**Q.** And the Vmax [17]?
**A.** The Vmax was 9.5 mM/min.

**Q.** And the Vmax [18]?
**A.** The Vmax was 39.7 mM/min.

**Q.** What about the Vmax [19] of the same molecule?
**A.** Its Vmax is 34.8 mM/min.

**Q.** And the Vmax [20]?
**A.** Its Vmax is 38.4 mM/min.

**Q.** And the Vmax [21]?
**A.** Its Vmax is 48.1 mM/min.

**Q.** And the Vmax [22]?
**A.** Its Vmax is 27.1 mM/min.

**Q.** And the Km [23]?
**A.** The Km was 0.8 mM.

**Q.** What about the Km [24] of the same molecule?
**A.** Its Km is 0.5 mM.

**Q.** What about the Km [25] of the same molecule?
**A.** The Km was 0.7 mM.

**Q.** And the Km [26]?
**A.** The Km was 1.9 mM.

**Q.** What about the Km [27] of the same molecule?
**A.** Its Km is 26.3 mM.

**Q.** What about the Km [28] of the same molecule?
**A.** Its Km is 21.7 mM.

**Q.** What about the Km [29] of the same molecule?
**A.** Its Km is 22.4 mM.

**Q.** What about the Km [30] of the same molecule?
**A.** Its Km is 8.3 mM.
